Data on six molecules can be found in patent US20250135006A1, “AMPHIPHILIC TLR7/8 ADJUVANTS AND USES THEREOF” (Pfizer Inc., priority 2023, published 2025).

Assay [1] deals with T1, human toll like receptor 7 (hTLR7) (Homo sapiens, UniProt Q9NYK1).
T1 construct: host or cells: HEK293 (HEK-Blue hTLR7)
T1 sequence (Q9NYK1 27-1049): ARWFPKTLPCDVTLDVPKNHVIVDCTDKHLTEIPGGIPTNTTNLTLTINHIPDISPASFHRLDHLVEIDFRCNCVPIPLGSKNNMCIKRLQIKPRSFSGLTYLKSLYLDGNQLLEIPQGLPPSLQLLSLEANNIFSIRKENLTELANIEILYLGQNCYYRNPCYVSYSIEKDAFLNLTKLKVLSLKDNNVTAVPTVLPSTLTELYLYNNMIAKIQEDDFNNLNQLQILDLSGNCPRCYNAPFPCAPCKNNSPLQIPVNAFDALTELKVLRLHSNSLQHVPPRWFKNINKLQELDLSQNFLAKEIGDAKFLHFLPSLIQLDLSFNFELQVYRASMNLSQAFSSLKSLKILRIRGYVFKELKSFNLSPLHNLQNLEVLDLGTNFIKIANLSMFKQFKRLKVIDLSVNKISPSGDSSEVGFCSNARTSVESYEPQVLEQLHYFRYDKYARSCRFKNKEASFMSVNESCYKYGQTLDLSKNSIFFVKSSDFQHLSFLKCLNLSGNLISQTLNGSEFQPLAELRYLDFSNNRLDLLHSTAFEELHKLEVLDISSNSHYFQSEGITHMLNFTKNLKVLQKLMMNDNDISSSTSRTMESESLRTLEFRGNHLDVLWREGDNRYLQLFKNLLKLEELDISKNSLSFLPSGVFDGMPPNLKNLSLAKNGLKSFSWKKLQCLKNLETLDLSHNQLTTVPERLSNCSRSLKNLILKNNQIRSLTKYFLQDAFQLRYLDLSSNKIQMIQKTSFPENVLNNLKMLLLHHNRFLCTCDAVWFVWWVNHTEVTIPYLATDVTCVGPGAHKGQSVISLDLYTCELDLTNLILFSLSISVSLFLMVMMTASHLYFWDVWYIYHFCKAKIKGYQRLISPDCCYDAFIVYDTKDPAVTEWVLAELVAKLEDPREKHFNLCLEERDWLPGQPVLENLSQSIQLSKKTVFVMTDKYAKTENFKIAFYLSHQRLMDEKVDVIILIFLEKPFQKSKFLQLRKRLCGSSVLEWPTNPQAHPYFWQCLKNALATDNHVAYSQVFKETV
Description: hTLR7 in-vitro functional assay (HEK-Blue hTLR7 SEAP reporter). The class given is cell-based. Particulars: HEK-Blue hTLR7 cells, overnight incubation. The source says: (§1) To determine the ability of test compounds to activate the human toll like receptor 7 (hTLR7) or human toll like receptor 8 (hTLR8), cell-based reporter systems were utilized. HEK293 cells stably overexpressing either hTLR7 or hTLR8 along with a reporter gene containing an optimized secreted embryonic alkaline phosphatase gene (SEAP), under the control of the IFN-b minimal promoter fused to five NF-kB and AP-1-binding sites, were obtained from Invivogen (HEK-Blue™ hTLR7, cat #Hkb-htlr7; HEK-Blue™ hTLR8, cat #Hkb-htlr8). Stimulation of hTLR7 or hTLR8 in these cells activates NF-kB and AP-1 and induces the production of SEAP which can be quantified using an alkaline phosphatase detection reagent.
(§2) On day one of the assay, compounds were prepared using 11-point half-log serial dilutions from a 10 mM DMSO stock solution and 50 nL was spotted into 384-well plates (PerkinElmer, cat #6007480). Positive and negative controls were also spotted within the assay plate and were used to determine percent effect during the analysis process. After resuspension in DMEM assay media containing FBS heat inactivated (10%), Glutamax (2 mM) and Penicillin/Streptomycin, 10,000 cells/20 ul/well were added to previously prepared compound plates. Plates were incubated overnight (16-20 hrs) at 37° C. in a 5% CO2 environment. Prewetted Microclime lids (Labcyte, LLS-0310) were used to prevent evaporation. On day two of the assay, QUANTI-Blue™ detection reagent was prepared by reconstituting QUANTI-Blue™ powder (InvivoGen, Rep-qb1) with 100 ml of sterile water and allowed to equilibrate to 37° C. for 15 minutes. 20 ul of QUANTI-Blue™ detection reagent was added to each well and plates were incubated at room temperature for 180 min. At the end of the incubation, plates were read on an Envision (Perkin Elmer) plate reader capturing absorbance at 650 nm.
(§3) Using Positive (tool compound) and Negative (DMSO) controls, the percent (%) effect was calculated for each sample using the following equation: […]
(§4) The % effect at each concentration of compound was calculated utilizing the ABase software suite (IBDS) and was relative to the amount of SEAP produced in the positive and negative control wells contained within each assay plate. The concentrations and % effect values for test compounds were fit using a 4-parameter logistic model in ABase and the concentration of compound that produced 50% response (EC50) was calculated.

Assay [2] has as its target T2, human toll like receptor 8 (hTLR8) (Homo sapiens, UniProt Q9NR97).
T2 construct: host or cells: HEK293 (HEK-Blue hTLR8)
T2 sequence (Q9NR97 27-1041): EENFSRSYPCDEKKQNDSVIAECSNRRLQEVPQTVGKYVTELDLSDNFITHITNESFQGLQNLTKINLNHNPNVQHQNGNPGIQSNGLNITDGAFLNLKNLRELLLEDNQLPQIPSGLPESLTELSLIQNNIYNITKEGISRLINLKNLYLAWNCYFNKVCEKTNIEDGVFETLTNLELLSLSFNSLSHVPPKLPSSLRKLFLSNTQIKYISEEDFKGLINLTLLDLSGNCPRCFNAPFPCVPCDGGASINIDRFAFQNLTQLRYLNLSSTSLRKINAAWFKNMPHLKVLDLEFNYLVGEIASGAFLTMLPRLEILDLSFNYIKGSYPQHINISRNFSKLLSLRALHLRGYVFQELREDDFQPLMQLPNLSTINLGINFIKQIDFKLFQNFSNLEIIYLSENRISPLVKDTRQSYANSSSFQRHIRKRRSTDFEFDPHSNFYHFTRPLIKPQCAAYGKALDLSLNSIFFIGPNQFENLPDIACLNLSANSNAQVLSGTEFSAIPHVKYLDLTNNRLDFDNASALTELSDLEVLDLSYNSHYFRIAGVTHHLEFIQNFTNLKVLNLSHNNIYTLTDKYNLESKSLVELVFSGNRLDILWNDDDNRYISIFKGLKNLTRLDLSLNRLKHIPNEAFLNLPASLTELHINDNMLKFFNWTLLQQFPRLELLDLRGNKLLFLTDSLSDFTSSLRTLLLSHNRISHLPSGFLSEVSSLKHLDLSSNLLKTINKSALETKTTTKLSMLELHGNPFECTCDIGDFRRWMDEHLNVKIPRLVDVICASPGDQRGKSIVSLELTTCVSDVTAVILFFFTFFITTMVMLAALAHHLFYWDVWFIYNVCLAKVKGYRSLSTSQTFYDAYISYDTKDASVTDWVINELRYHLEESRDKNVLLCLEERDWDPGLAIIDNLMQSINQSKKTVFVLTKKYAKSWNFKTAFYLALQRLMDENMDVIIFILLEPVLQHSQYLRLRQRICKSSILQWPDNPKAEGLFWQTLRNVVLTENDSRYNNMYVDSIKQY
Briefly: hTLR8 in-vitro functional assay (HEK-Blue hTLR8 SEAP reporter). The class given is cell-based. The following applies: HEK-Blue hTLR8 cells, overnight incubation.
Source text: as §1, §2, §3, §4

A value given as a limit tells only on which side of the number the result lay.

For `CCCCc1nc2c(N)nc3cc(CCCN4CCN(C(=O)CCOCCOCCOCCOCCOCCOCCOCCOCCOCCOCCOCCOCCOCCOCCOCCOCCOCCOCCOCCOCCOCCOCCOCCOCCNC(=O)CCOCCOCCOCCOCCOCCOCCOCCOCCOCCOCCOCCOCCOCCOCCOCCOCCOCCOCCOCCOCCOCCOCCOCCOCCNC(=O)O[C@H]5CC[C@@]6(C)C(=CC[C@H]7[C@@H]8CC[C@H]([C@H](C)CCCC(C)C)[C@@]8(C)CC[C@@H]76)C5)CC4)ccc3c2n1CC(C)(CO)CO` [Compound 8, (3beta,20R)-cholest-5-en-3-yl {151-[4-(3-{4-amino-2-butyl-1-[3-hydroxy-2-(hydroxymethyl)-2-methylpropyl]-1H-imidazo[4,5-c]quinolin-7-yl}propyl)piperazin-1-yl]-75,151-dioxo-3,6,9,12,15,18,21,24,27,30,33,36,39,42,45,48,51,54,57,60,63,66,69,72,79,82,85,88,91,94,97,100,103,106,109,112,115,118,121,124,127,130,133,136,139,142,145,148-octatetracontaoxa-76-azahenpentacontahect-1-yl}carbamate], the EC50 in assay [1] was 150 nM; in assay [2], 0.731 µM.

In the case of `CCCCc1nc2c(N)nc3cc(CCCN4CCN(CCCOCCOCCOCCOCCOCCOCCOCCOCCOCCOCCOCCOCCOCCOCCOCCOCCOCCOCCOCCOCCOCCOCCOCCOCCNC(=O)CCOCCOCCOCCOCCNC(=O)CCCOc5c(C)c(C)c6c(c5C)CC[C@@](C)(CCC[C@H](C)CCC[C@H](C)CCCC(C)C)O6)CC4)ccc3c2n1CC(C)(CO)CO` [Compound 26, N-{75-[4-(3-{4-amino-2-butyl-1-[3-hydroxy-2-(hydroxymethyl)-2-methylpropyl]-1H-imidazo[4,5-c]quinolin-7-yl}propyl)piperazin-1-yl]-3,6,9,12,15,18,21,24,27,30,33,36,39,42,45,48,51,54,57,60,63,66,69,72-tetracosaoxapentaheptacontan-1-yl}-17-oxo-20-({(2R)-2,5,7,8-tetramethyl-2-[(4R,8R)-4,8,12-trimethyltridecyl]-3,4-dihydro-2H-1-benzopyran-6-yl}oxy)-4,7,10,13-tetraoxa-16-azaicosan-1-amide], the EC50 is 404 nM in assay [1] and above 25 µM in assay [2].

For the molecule `CCCCc1nc2c(N)nc3cc(CCCN4CCN(CCCOCCOCCOCCOCCOCCOCCOCCOCCOCCOCCOCCOCCOCCOCCOCCOCCNC(=O)O[C@H]5CC[C@@]6(C)C(=CC[C@H]7[C@@H]8CC[C@H]([C@H](C)CCCC(C)C)[C@@]8(C)CC[C@@H]76)C5)CC4)ccc3c2n1CC(C)(CO)CO` [Compound 14, (3beta,20R)-cholest-5-en-3-yl {51-[4-(3-{4-amino-2-butyl-1-[3-hydroxy-2-(hydroxymethyl)-2-methylpropyl]-1H-imidazo[4,5-c]quinolin-7-yl}propyl)piperazin-1-yl]-3,6,9,12,15,18,21,24,27,30,33,36,39,42,45,48-hexadecaoxahenpentacont-1-yl}carbamate], the figures for the 50% effective concentration (EC50) in assay [1] and in assay [2] were 236 nM and 22.6 µM, respectively.

As for `CCCCc1nc2c(N)nc3cc(CCCN4CCN(CCCOCCOCCNC(=O)O[C@H]5CC[C@@]6(C)C(=CC[C@H]7[C@@H]8CC[C@H]([C@H](C)CCCC(C)C)[C@@]8(C)CC[C@@H]76)C5)CC4)ccc3c2n1CC(C)(CO)CO` [Compound 18, (20R)-cholest-5-en-3beta-yl [2-(2-{3-[4-(3-{4-amino-2-butyl-1-[3-hydroxy-2-(hydroxymethyl)-2-methylpropyl]-1H-imidazo[4,5-c]quinolin-7-yl}propyl)piperazin-1-yl]propoxy}ethoxy)ethyl]carbamate], the values for the EC50 in assay [1] and in assay [2] were 288 nM and 9.9 µM, respectively.

As for `CCCCc1nc2c(N)nc3cc(CCCN4CCN(CCCOCCOCCOCCOCCNC(=O)CCOCCOCCOCCOCCNC(=O)O[C@H]5CC[C@@]6(C)C(=CC[C@H]7[C@@H]8CC[C@H]([C@H](C)CCCC(C)C)[C@@]8(C)CC[C@@H]76)C5)CC4)ccc3c2n1CC(C)(CO)CO` [Compound 15, (20R)-cholest-5-en-3beta-yl {31-[4-(3-{4-amino-2-butyl-1-[3-hydroxy-2-(hydroxymethyl)-2-methylpropyl]-1H-imidazo[4,5-c]quinolin-7-yl}propyl)piperazin-1-yl]-15-oxo-3,6,9,12,19,22,25,28-octaoxa-16-azahentriacontan-1-yl}carbamate], the EC50 in assay [1] was 276 nM; in assay [2], 17.6 µM.

On to `CCCCc1nc2c(N)nc3cc(CCCN4CCN(CCCOCCOCCOCCOCCOCCOCCOCCOCCOCCOCCOCCOCCOCCOCCOCCOCCOCCOCCOCCOCCOCCOCCOCCOCCNC(=O)CCOCCOCCOCCOCCNC(=O)O[C@H]5CC[C@@]6(C)C(=CC[C@H]7[C@@H]8CC[C@H]([C@H](C)CCCC(C)C)[C@@]8(C)CC[C@@H]76)C5)CC4)ccc3c2n1CC(C)(CO)CO` [Compound 17, (3beta)-cholest-5-en-3-yl {91-[4-(3-{4-amino-2-butyl-1-[3-hydroxy-2-(hydroxymethyl)-2-methylpropyl]-1H-imidazo[4,5-c]quinolin-7-yl}propyl)piperazin-1-yl]-15-oxo-3,6,9,12,19,22,25,28,31,34,37,40,43,46,49,52,55,58,61,64,67,70,73,76,79,82,85,88-octacosaoxa-16-azahennonacont-1-yl}carbamate], for which the EC50 in assay [1] is 282 nM; in assay [2], 2.61 µM.

For orientation: EC50 means the concentration at which the effect is half-maximal.
